Key:
[1] = target: albumin (HSA) (Homo sapiens, UniProt P02768); test: Binding ability evaluation: dissociation constant from fluorescence change with increasing albumin; settings: 100 nM boron-containing compound, 95 vol % PBS buffer and 5 vol % DMSO, stirred 2 hours, fluorescence at 530 nm
Method: 100 nM boron-containing compound B1 and albumin (HSA) were mixed in 95 vol % PBS buffer and 5 vol % dimethyl sulfoxide (DMSO) and stirred for 2 hours. The change in fluorescence intensity (F.I.) was measured while increasing the concentration of the albumin, and the dissociation constant (Kd) calculated based thereon is shown in FIG. 2.
For example, 0:1 represents the case where 100 nM albumin (HSA) was used without using a boron-containing compound, 1:0 represents the case where 100 nM boron-containing compound B1 was used and no albumin (HSA) was used, 1:2 represents the case where 100 nM boron-containing compound B1 and 200 nM albumin (HSA) were used, and 1:16 represents the case where 100 nM boron-containing compound B1 and 1600 nM albumin (HSA) were used.
The dissociation constants (Kd) of boron-containing compounds B2 to B5 were calculated in the same method as used to produce boron-containing compound B1.

[2] = Evaluation of ROS production according to lysine concentration; settings: 10 μM compound with about 1.0 mM monomeric lysine, PBS pH 7.4, light of about 530 nm
Method: • i) 1.0 mM lysine (hereinafter, Lys) was mixed in PBS buffer solution (pH 7.4) and irradiated with light of about 530 nm. The fluorescence generated over time was measured using a Scinco FS-2, and results thereof are shown in FIG. 7A. • ii) The result of mixing 10 μM boron-containing compound B3 instead of the 1.0 mM lysine (Lys) is shown in FIG. 7B, iii) the result of mixing 10 μM boron-containing compound B3 and 0.1 mM lysine (Lys) instead of the 1.0 mM lysine (Lys) is shown in FIG. 7C, and iv) the result of mixing 10 μM boron-containing compound B3 and 1.0 mM lysine (Lys) instead of the 1.0 mM lysine (Lys) is shown in FIG. 7D.

Chain of albumin (HSA) (P02768 25-609): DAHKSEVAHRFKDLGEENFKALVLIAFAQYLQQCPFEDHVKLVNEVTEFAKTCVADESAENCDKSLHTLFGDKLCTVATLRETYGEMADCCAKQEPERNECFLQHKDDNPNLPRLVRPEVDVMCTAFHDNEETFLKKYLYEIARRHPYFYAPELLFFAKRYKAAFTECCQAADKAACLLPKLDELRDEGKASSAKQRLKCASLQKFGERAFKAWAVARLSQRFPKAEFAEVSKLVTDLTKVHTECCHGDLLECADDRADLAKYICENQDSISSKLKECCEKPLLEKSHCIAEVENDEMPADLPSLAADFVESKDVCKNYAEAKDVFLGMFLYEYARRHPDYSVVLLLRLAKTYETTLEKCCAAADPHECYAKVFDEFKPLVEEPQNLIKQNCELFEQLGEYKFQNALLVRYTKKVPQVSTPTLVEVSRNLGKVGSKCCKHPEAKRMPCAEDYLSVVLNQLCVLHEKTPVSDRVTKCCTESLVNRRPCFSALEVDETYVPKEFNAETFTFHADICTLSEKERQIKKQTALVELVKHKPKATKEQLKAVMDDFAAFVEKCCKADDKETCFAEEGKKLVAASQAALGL

Row | SMILES | Kd [1] [nM] | reactive oxygen species generated when mixed with lysine [2]
1 | O=C(c1ccccc1)c1ccccc1NCc1ccccc1B(O)O [B4] | 2220 | 
2 | O=Cc1cc2ccccc2cc1NCc1ccccc1B(O)O [B3] | 2480 | relatively large amount of reactive oxygen species is generated
3 | O=Cc1cc2c(cc1NCc1ccccc1B(O)O)OCO2 [B5] | 571 | 

Continued by falling Kd [1], values first:

Row | Kd [1] [nM] | SMILES | reactive oxygen species generated when mixed with lysine [2]
4 | 383 | O=Cc1cc(Br)ccc1NCc1ccccc1B(O)O [B2] | 
5 | 185 | O=Cc1ccccc1NCc1ccccc1B(O)O [B1] | 
